Tests used:
[1] = Toxicity (weight loss and deaths) in mice after daily i.p. injection for four consecutive days, observed up to 12 days (Example 10); type: in vivo, mice (male albino CDI)
Description: (§1) A group of 10 male albino CDI mice from Charles Riner, France, is given an i.p. injection of the test compound in aqueous solution daily for four consecutive days. Half of the animals are killed by decapitation 24 hours after the last dose of the test compound. The other half of the animals are observed for up to 12 days for toxicity (as indicated by weight loss and deaths). Control animals receive an injection of the vehicle only.
(§2) When tested as described above, 1-fluoro-2,4-diaminobutane (MFDB) and 1,1-difluoro-2,4-diaminobutane (DFDB) gave the results set forth in Table I below: […]

GABA-T = GABA-T inhibition in mouse brain after daily i.p. injection for four consecutive days (Example 10); type: in vivo, mice (male albino CDI); details: 24 hours after last dose
Description: as §1
The brains are removed from the dead mice and are divided into two portions by sagittal section. One half is used for the measurement of GABA-T activity while the other half is used for measuring GABA content. The GABA-T activity is measured using known methods as described by M. Jung et al., J. Neurochem., 28, 717 (1977) and 29, 797 (1977). GABA content is measured by perchloric acid or trichloroacetic acid extracts using an amino acid analyzer equiped with a fluorescene detector.
as §2

[2] = 5 mg/kg daily i.p. for 4 days, observed up to 12 days

## NCCC(N)C(F)F (stereo not drawn) [DFDB, 1,1-Difluoro-2,4-diaminobutane]
[1]; 2 mg/kg daily i.p. for 4 days
  Weight Loss: 0%
[1]; 2 mg/kg daily i.p. for 4 days, observed up to 12 days
  Morality (After treatment): 0/5
[1]; 5 mg/kg daily i.p. for 4 days
  Weight Loss: 0%
[1]; [2]
  Morality (After treatment): 0/5
[1]; 10 mg/kg daily i.p. for 4 days
  Weight Loss: -25%
[1]; 10 mg/kg daily i.p. for 4 days, by day 8
  Morality (After treatment): 2/5
[1]; 20 mg/kg daily i.p. for 4 days
  Weight Loss: -30%
[1]; 20 mg/kg daily i.p. for 4 days, by day 6
  Morality (After treatment): 5/5
GABA-T; 2 mg/kg daily i.p. for 4 days
  GABA-T Inhibition: 69.5%
GABA-T; 5 mg/kg daily i.p. for 4 days
  GABA-T Inhibition: 71.4%
GABA-T; 10 mg/kg daily i.p. for 4 days
  GABA-T Inhibition: 81%
GABA-T; 20 mg/kg daily i.p. for 4 days
  GABA-T Inhibition: 96.7%

## NCCC(N)CF (stereo not drawn) [MFDB, 1-Fluoro-2,4-diaminobutane]
[1]; 5 mg/kg daily i.p. for 4 days
  Weight Loss: 0%
[1]; [2]
  Morality (After treatment): 0/5
[1]; 10 mg/kg daily i.p. for 4 days
  Weight Loss: 0%
[1]; 10 mg/kg daily i.p. for 4 days, observed up to 12 days
  Morality (After treatment): 0/5
[1]; 25 mg/kg daily i.p. for 4 days
  Weight Loss: -20%
[1]; 25 mg/kg daily i.p. for 4 days, on day 12
  Morality (After treatment): 2/5
[1]; 50 mg/kg daily i.p. for 4 days
  Weight Loss: -35%
[1]; 50 mg/kg daily i.p. for 4 days, on day 8
  Morality (After treatment): 3/5
GABA-T; 5 mg/kg daily i.p. for 4 days
  GABA-T Inhibition: 39.7%
GABA-T; 10 mg/kg daily i.p. for 4 days
  GABA-T Inhibition: 49.8%
GABA-T; 25 mg/kg daily i.p. for 4 days
  GABA-T Inhibition: 74%
GABA-T; 50 mg/kg daily i.p. for 4 days
  GABA-T Inhibition: 79%
